Among the data in patent US4753953A, “Pyridonecarboxylic acid derivatives and antibacterial pharmaceutical compositions thereof” (priority 1985, dated 1988) are MIC and ED50 values, retold here.

A word on the MIC: it is the lowest concentration found to suppress growth. By ED50 is commonly meant the dose that gives a 50% effect, or the effect in half of the subjects. Higher therefore signals weaker potency.

For one test, the system named is B. fragilis 0558. The experiment in a line: MIC, in vitro antibacterial activity (standard strains). Type of test: cell-based, Bacteroides fragilis. To be noted: Bacteroides fragilis, 0558.
The subject of test [1] is Bacillus subtilis PCI 219. The description is as above. Type of test: cell-based. To be noted: Bacillus subtilis, PCI219.
Test [2] concerns E. coli ML 4707. Described as above. It is filed as cell-based, Escherichia coli. To be noted: Escherichia coli, ML4707, 10^6 cells/ml; Gram -; Table 1.
The test system of test [3] is Morganella morganii IID 602. The test is described as above. Type of test: cell-based. To be noted: Morganella morganii, IID602; 10^6 cells/ml; Gram -; read-out: MIC.
In the next test the test system is C. ramosum. Described as above. It is filed as cell-based. To be noted: Thomasclavelia ramosa.
Test [4] deals with Citrobacter freundii IID 976. The test is described as above. It is filed as cell-based. To be noted: Citrobacter freundii, IID976.
Test [5] relates to Veillonella parvula KYA 10790. Described as above. To be noted: Veillonella parvula, KYA10790; 10^6 cells/ml; Gram -; read-out: MIC. It is filed as cell-based.
Test [6] has as its system Pseudomonas aeruginosa V-1. Described as above. To be noted: Pseudomonas aeruginosa, V1. Type of test: cell-based.
The test system of the next test is Shigella sonnei IID 969. The description is as above. Type of test: cell-based. To be noted: Shigella sonnei, IID969; 10^6 cells/ml; Gram -; read-out: MIC. As to the method: Minimal inhibitory concentrations (MICs) were determined in accordance with the method recommended by Japan Society of Chemotherapy.
The subject of another test is B. distasonis 8503. The test is described as above. It is filed as cell-based. To be noted: Parabacteroides distasonis, 8503.
The test system of a further test is B. fragilis 25285. Described as above. To be noted: Bacteroides fragilis, 25285. Type of test: cell-based, Bacteroides fragilis.
Test [7] concerns Proteus vulgaris IFO 3167. The description is as above. It is filed as cell-based. To be noted: Proteus vulgaris, IFO3167.
Another test deals with K. pneumoniae 1-220S. The description is as above. Type of test: cell-based, Klebsiella pneumoniae. To be noted: Klebsiella pneumoniae, 1220S.
For the next test, the system named is Pst. micros UPI 5464-1. Described as above. It is filed as cell-based. To be noted: Parvimonas micra, UPI54641; 10^6 cells/ml; Gram +; read-out: MIC.
The next test relates to S. pneumoniae S-4288. Nature of the test: Therapeutic efficacy against systemic infections in mice, S. pneumoniae S-4288. To be noted: Streptococcus pneumoniae, S4288, in Mus musculus, po, 1 h.
For test [8], the system named is E. coli ML 4707. Nature of the test: Therapeutic efficacy against systemic infections in mice, E. coli ML 4707. To be noted: Escherichia coli, ML4707, in Mus musculus, po, 1 h.
Test [9] deals with Bacteroides fragilis GM 7000. Nature of the test: MIC, in vitro antibacterial activity (standard strains). To be noted: Bacteroides fragilis, GM7000. Type of test: cell-based.
Another test has as its system MR S. aureus KYB 623. Nature of the test: Therapeutic efficacy against systemic infections in mice, MR S. aureus KYB 623. To be noted: Staphylococcus aureus, in Mus musculus, po, 1 h.

Values after ≈ are worked out from the molar mass of the structure shown. Where only a bound is given, the exact number is not on record here.

On to `O=C(O)c1cn(C2CC2)c2cc(N3CCNCC3)c(F)cc2c1=O` [CPFX, ciprofloxacin, reference compound], for which the MIC against B. fragilis 0558 was 3.13 µg/mL (≈ 9.45 µM); in test [1], 0.05 µg/mL (≈ 0.151 µM); with E. coli ML 4707 [2], at most 0.0063 µg/mL; in test [3], 0.05 µg/mL (≈ 0.151 µM); in the test with C. ramosum it was 6.25 µg/mL (≈ 18.9 µM); in [4], at most 0.0063 µg/mL. The MIC in test [5] was 0.2 µg/mL (≈ 0.604 µM); in test [6] it was 0.2 µg/mL (≈ 0.604 µM); in the test on Shigella sonnei IID 969, at most 0.0063 µg/mL; against B. distasonis 8503 it was 6.25 µg/mL (≈ 18.9 µM); in the test with B. fragilis 25285, 6.25 µg/mL (≈ 18.9 µM); in test [7], at most 0.0063 µg/mL. Further, the MIC came out at 0.05 µg/mL (≈ 0.151 µM) with K. pneumoniae 1-220S, 0.2 µg/mL (≈ 0.604 µM) with Pst. micros UPI 5464-1 and 3.13 µg/mL (≈ 9.45 µM) in test [9]. The ED50 in the test with S. pneumoniae S-4288 is over 100 mg/kg; in the test on E. coli ML 4707 [8], 1.4 mg/kg; in the test with MR S. aureus KYB 623, 37 mg/kg.
